For seven compounds, EC50 and IC50 results are on record in patent publication US20120208809A1, “9H-PYRROLO[2,3-B: 5,4-C'] DIPYRIDINE AZACARBOLINE DERIVATIVES, PREPARATION THEREOF, AND THERAPEUTIC USE THEREOF” (SANOFI, priority 2009, published 2012).

For assay [1], the system named is EOL-1. The experiment in a line: Cell viability assay (CellTiter-Blue), EOL-1.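 Also: EOL-1 is an acute myeloid eosinophilic leukaemia line not a lymphoma.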 The assay is classed as cell-based. To be noted: Homo sapiens, EOL1, read-out: EC50 EOL-1 μM (eosinophilic leukaemia), EOL-1 cells, read-out: EC50 EOL-1 μM (lymphoma). The source says: (§1) The representative compounds of the invention are also screened as regards their effects on cell proliferation and viability, using a variety of tumoral cell lines of human source, representative of different pathological indications. These cell lines include:
Models of Haematological Cancers: • TF-1 (acute myelogenic leukaemia; AML M6 at the time of diagnosis); • K G-1 (AML; erythroleukaemia evolving into AML); • KG-1a (AML; subclone derived from immature KG-1); • EOL-1 (AML: eosinophilic leukaemia); • PL-21 (AML; M3); • ML-2 (AML; T-NHL evolving into T-ALL evolving into AML M4); • HL-60 (AML, M3); • Kasumi-1 (AML); • GDM-1 (AML); • K-562 (CML—chronic myelogenic leukaemia; blastic crisis); • JURL-MK1 (CML; blastic crisis); • DND-41 (T-ALL—T-cell acute lymphoblastic leukaemia); • Jurkat (T-ALL); NALM-6 (B-ALL B-cell ALL); • CEM (ALL; lymphosarcoma evolving into ALL); • Jeko-1 (B-NHL—B-cell non-Hodgkin lymphoma; lymphoma with coat cells derived from a large-cell variant in leukaemic transformation); • WSU-DLCL2 (B-NHL; diffuse lymphoma with large B cells); • RL (B-NHL; undifferentiated diffuse); • OCl-Ly10 (B-NHL); • DoHH-2 (B-NHL); • RPMI-8226 (MM—multiple myelomas); • JVM-2 (B-CLL—B-cell chronic lymphocytic leukaemia); and • JVM-3 (B-CLL).
(§2) In order to measure the viability, the tumour cells are incubated in 96-well or 384-well format for 48, 72 or 96 hours, preferably 72 hours, with a compound of the invention at dilutions of a factor 3, with, in general, nine doses in total, the highest dose being equal to 10 μM or 30 μM. The cell viability is evaluated by adding CellTiter-Blue® (Promega, Madison, Wis., United States) for 4 hours and endpoint readings are taken using a SpectraMax Genmini EM plate reader (Molecular Devices, Sunnyvale, Calif., United States). The CellTiter-Blue® cell viability assay measures the ability of the cells in culture to reduce resazurin to resorufin, the intensity of the fluorescence signal being directly proportional to the number of live cells. The EC50 represents the concentration of compound that leads to a 50% reduction of the viability/proliferative expansion of the cells.
(In general: Resazurin is reduced to fluorescent resorufin, in cell work by metabolically active cells.)

In assay [2] the target is PLK1 (Homo sapiens, UniProt P53350). The assay can be described thus: Biochemical results, IC50 PLK1.
In assay [3] the target is T1, Pim-1 (Homo sapiens, UniProt P11309).
T1 construct: full-length human recombinant His6-labelled Pim-1, Pim-2 or Pim-3 protein; His6; made in house
The assay can be described thus: TR-FRET assay of Pim kinase activity (phosphorylation of Bad Ser112), Pim-1. To be noted: ATP 40 μM, read-out: IC50 Pim1. The assay is classed as biochemical. An outline of the steps:
(§3)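 Full-length His6-tagged human Pim-1, -2 or -3 phosphorylate full-length His6-Bad at 40 μM ATP; phospho-Ser112 detected by TR-FRET (Eu anti-phosphoBad, APC anti-His6), 665/615 nm ratio. Compounds run at 10 concentrations in duplicate, typically top 30 μM; IC50 from 4-parameter logistic fit.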
On the technique in general: In TR-FRET formats the signal depends on donor and acceptor labels being close together.

The target in assay [4] is T2, Pim-2 (Homo sapiens, UniProt Q9P1W9).
T2 construct: full-length human recombinant His6-labelled Pim-1, Pim-2 or Pim-3 protein; His6; made in house
The assay can be described thus: TR-FRET assay of Pim kinase activity (phosphorylation of Bad Ser112), Pim-2. Format: biochemical. Particulars: ATP 40 μM, read-out: IC50 Pim2. Summed up:
as §3

For assay [5], the target named is CDK1 (Homo sapiens, UniProt P06493). The experiment in a line: Biochemical results, IC50 CDK1.
For assay [6], the system named is MV4-11. The experiment in a line: Cell viability assay (CellTiter-Blue), MV4-11. To be noted: Homo sapiens, read-out: EC50 MV4-11 μM (acute myeloid leukemia), MV4-11 cells, read-out: EC50 MV4-11 μM (myeloma). Format: cell-based. As for the experimental part:
as §1, §2

Assay [7] concerns the target T3, Pim-3 (Homo sapiens, UniProt Q86V86).
T3 construct: full-length human recombinant His6-labelled Pim-1, Pim-2 or Pim-3 protein; His6; made in house
The experiment in a line: TR-FRET assay of Pim kinase activity (phosphorylation of Bad Ser112), Pim-3. Format: biochemical. To be noted: ATP 40 μM, read-out: IC50 Pim3. An outline of the steps: as §3

The test system of assay [8] is phosphoBAD (DND-41). The assay can be described thus: Level of phosphorylation of Bad by ELISA, DND-41 cell line. The assay is classed as cell-based. Particulars: Homo sapiens, DND41, DND-41 cells, 3 hours at 37° C. As for the experimental part:
The activity of the molecules is evaluated on the JEKO or DND-41 cell line by measuring the level of phosphorylation of Bad and the total Bad content, via the ELISA technique.
The JEKO or DND-41 cells are resuspended at a concentration of 500 000 cells per ml. The cells are then diluted in RPMI-1640 medium containing 20% foetal calf serum. 225 μl of cells are placed in a plate. Serial dilutions of the molecules are then performed (8 points, three-fold dilution, range started at 10 mM). Each dilution point is then diluted to 1/100 in medium. Next, 25 μl of each of the concentrations are added to the cells and then incubated for 3 hours at 37° C.
100 μl of the cells are transferred into a plate treated with poly-D-Lysine. The plate is then incubated for 5-10 minutes at 37° C. and then centrifuged for 5 minutes at 1500 rpm. A volume of 100 μl of 8% fixing solution (solution of formaldehyde in PBS buffer) is added to each of the wells. After covering with a self-adhesive film and a lid, the plate is incubated for 20 minutes at room temperature and then stored at 4° C. overnight.
Next, the liquid is removed and two successive washes are performed with washing buffer. 100 μl of quenching buffer are added, followed by incubating for 15 minutes at room temperature. After washing, 100 μl of […] at room temperature. After washing, 50 μl of primary antibody diluted to 1/250 for pBAD (Cell Signaling Cat#5284) and to 1/500 for Bad (MBL Cat#591) are added to each of the plates. Each plate is incubated for 2 hours at room temperature. After two washes, 50 μl of secondary antibody (diluted to 1/16) are added to the pBAD plate (tebu-bio ref; FE-021) and 50 μl of the HRP-conjugated IgG secondary antibody (Santa Cruz Cat #SC-2004; diluted to 1/1000) are added to the Bad plate. Incubation for 1 hour at room temperature is performed. Four washes with the washing solution are performed, followed by three washes with PBS. Finally, 100 μl of the developing solution are added, followed by incubation for 10 minutes. Finally, 100 μl of the quenching solution are added, before reading at 450 nm.
For orientation: ELISA stands for enzyme-linked immunosorbent assay.

As a reminder, the EC50 is the concentration at which the effect is half-maximal. Broadly, the IC50 is the concentration that gives 50% inhibition.

CDK1, sequence (P06493 whole entry, species assumed): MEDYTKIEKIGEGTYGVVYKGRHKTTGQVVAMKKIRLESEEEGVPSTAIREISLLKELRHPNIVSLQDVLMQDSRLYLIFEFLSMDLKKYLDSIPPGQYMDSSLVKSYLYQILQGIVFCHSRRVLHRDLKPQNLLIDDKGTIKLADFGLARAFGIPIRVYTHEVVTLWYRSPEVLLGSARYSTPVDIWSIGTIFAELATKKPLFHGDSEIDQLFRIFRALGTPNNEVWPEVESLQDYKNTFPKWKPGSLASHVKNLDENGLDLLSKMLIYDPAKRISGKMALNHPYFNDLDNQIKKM
CDK1, sequence (P14635 whole entry partner, species assumed): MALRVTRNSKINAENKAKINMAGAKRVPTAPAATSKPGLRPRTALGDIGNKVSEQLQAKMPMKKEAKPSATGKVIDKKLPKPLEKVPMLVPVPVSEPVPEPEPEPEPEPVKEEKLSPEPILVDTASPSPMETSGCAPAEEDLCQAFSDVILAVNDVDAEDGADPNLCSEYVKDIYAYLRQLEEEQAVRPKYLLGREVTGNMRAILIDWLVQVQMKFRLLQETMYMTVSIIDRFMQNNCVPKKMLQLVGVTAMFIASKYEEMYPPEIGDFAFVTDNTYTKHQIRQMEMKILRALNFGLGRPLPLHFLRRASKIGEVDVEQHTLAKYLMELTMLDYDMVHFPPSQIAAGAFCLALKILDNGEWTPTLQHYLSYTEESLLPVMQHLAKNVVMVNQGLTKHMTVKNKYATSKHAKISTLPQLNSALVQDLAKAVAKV
T1 sequence (P11309 whole entry): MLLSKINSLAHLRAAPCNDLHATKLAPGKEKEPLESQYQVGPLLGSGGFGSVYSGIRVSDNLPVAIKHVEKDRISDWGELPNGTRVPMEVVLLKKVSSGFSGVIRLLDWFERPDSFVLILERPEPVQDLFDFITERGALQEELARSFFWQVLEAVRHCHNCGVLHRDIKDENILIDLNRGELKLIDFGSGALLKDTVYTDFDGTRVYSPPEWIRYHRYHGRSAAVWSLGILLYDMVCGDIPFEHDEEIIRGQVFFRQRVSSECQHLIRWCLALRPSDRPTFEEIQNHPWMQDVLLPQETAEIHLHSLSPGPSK
T2 sequence (Q9P1W9 whole entry): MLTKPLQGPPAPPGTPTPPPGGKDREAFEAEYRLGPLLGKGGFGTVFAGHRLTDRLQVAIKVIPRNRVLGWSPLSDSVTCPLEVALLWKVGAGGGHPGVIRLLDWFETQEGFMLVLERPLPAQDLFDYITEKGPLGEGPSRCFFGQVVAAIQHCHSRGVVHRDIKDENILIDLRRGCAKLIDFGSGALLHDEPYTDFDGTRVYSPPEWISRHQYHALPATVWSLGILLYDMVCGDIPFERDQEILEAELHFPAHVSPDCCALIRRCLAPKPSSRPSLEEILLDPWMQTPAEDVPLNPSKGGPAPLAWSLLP
PLK1, sequence (P53350 whole entry, species assumed): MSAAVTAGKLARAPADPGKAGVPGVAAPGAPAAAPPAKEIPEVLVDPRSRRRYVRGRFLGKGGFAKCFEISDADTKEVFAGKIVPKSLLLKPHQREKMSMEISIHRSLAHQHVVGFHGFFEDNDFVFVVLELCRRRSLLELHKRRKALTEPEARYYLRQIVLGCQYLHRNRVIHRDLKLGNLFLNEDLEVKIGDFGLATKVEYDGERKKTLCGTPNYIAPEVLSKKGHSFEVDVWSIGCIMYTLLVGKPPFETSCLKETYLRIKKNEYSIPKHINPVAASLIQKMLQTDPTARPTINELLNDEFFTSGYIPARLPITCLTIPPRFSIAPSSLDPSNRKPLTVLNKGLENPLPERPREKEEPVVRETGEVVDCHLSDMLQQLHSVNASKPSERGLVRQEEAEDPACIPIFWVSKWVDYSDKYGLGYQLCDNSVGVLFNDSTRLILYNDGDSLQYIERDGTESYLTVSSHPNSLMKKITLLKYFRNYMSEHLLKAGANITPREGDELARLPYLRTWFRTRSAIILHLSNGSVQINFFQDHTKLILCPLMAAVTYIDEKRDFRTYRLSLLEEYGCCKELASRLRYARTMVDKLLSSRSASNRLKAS

As to `CN1CCC(CCNC(=O)c2ccc(-c3c(F)cnc4[nH]c5cnc(-c6cccnc6)cc5c34)cc2)CC1` [Example 61, 4-[3-fluoro-6-(pyridin-3-yl)-9H-pyrrolo[2,3-b:5,4-c′]dipyridin-4-yl]-N-[2-(1-methylpiperidin-4-yl)ethyl]benzamide], the EC50 in assay [1] and in assay [6] was 100 to 1000 nM each time. Further, the IC50 was 1000 to 5000 nM in assay [2]; < 100 nM in assay [3]; 100 to 1000 nM in assay [4]; 1000 to 5000 nM in assay [5]; < 100 nM in assay [7]; 1000 to 5000 nM in assay [8].
For the compound `CN(CC1CCCCN1C)C(=O)c1ccc(-c2c(F)cnc3[nH]c4cnc(-c5cccnc5)cc4c23)cc1` (centres unmarked) [Example 64, 4-[3-fiuoro-6-(pyridin-3-yl)-9H-pyrrolo[2,3-b:5,4-c′]dipyridin-4-yl]-N-methyl-N-[(1-methylpiperidin-2-yl)methyl]benzamide], the EC50 in assay [1] and in assay [6] was 100 to 1000 nM throughout. Moreover, the half-inhibitory concentration (IC50) in assay [2] was 100 to 1000 nM; in assay [3] it was < 100 nM; in assay [4], 100 to 1000 nM; in assay [5] it was 1000 to 5000 nM; in assay [7], < 100 nM; in assay [8] it was 100 to 1000 nM.
Regarding `NCCNC(=O)c1ccc(-c2c(F)cnc3[nH]c4cnc(-c5cccnc5)cc4c23)cc1` [Example 28, N-(2-aminoethyl)-4-[3-fluoro-6-(pyridin-3-yl)-9H-pyrrolo[2,3-b:5,4-c′]dipyridin-4-yl]benzamide], the concentration for a half-maximal effect (EC50) in assay [1] and in assay [6] was 100 to 1000 nM throughout. The IC50 was 100 to 1000 nM in assay [2]; < 100 nM in assay [3]; < 100 nM in assay [4]; 100 to 1000 nM in assay [5]; < 100 nM in assay [7]; 1000 to 5000 nM in assay [8].
With `CC(CN(C)C)NC(=O)c1ccc(-c2c(F)cnc3[nH]c4cnc(-c5cccnc5)cc4c23)cc1` (centres unmarked) [Example 68, N-[1-(dimethylamino)propan-2-yl]-4-[3-fluoro-6-(pyridin-3-yl)-9H-pyrrolo[2,3-b:5,4c′]dipyridin-4-yl]benzamide], the concentration giving a half-maximal response (EC50) in assay [1] was < 100 nM; in assay [6], 100 to 1000 nM. In addition, the IC50 in assay [2] is 1000 to 5000 nM; in assay [3], < 100 nM; in assay [4] it was < 100 nM; in assay [5] it was 1000 to 5000 nM; in assay [7], < 100 nM; in assay [8], < 100 nM.
`CC(C)N(CCNC(=O)c1ccc(-c2c(F)cnc3[nH]c4cnc(-c5cccnc5)cc4c23)cc1)C(C)C` [Example 66, N-[2-(dipropan-2-ylamino)ethyl]-4-[3-fluoro-6-(pyridin-3-yl)-9H-pyrrolo[2,3-b:5,4-c′]dipyridin-4-yl]benzamide]: the EC50 is < 100 nM in assay [1] and 100 to 1000 nM in assay [6]. Moreover, the IC50 in assay [2] was 100 to 1000 nM; in assay [3] it was < 100 nM; in assay [4] it was 100 to 1000 nM; in assay [5] it was 1000 to 5000 nM; in assay [7], < 100 nM; in assay [8] it was 100 to 1000 nM.
Regarding `CN(C)CCCCNC(=O)c1ccc(-c2c(F)cnc3[nH]c4cnc(-c5cccnc5)cc4c23)cc1` [Example 75, N-[4-(dimethylamino)butyl]-4-[3-fluoro-6-(pyridin-3-yl)-9H-pyrrolo[2,3-b:5,4-c′]dipyridin-4-yl]benzamide], the EC50 in assay [1] and in assay [6] was 100 to 1000 nM throughout. Moreover, the concentration for half-maximal inhibition (IC50) was 1000 to 5000 nM in assay [2]; < 100 nM in assay [3]; 100 to 1000 nM in assay [4]; 100 to 1000 nM in assay [5]; < 100 nM in assay [7]; 1000 to 5000 nM in assay [8].
Consider `CC(CNC(=O)c1ccc(-c2c(F)cnc3[nH]c4cnc(-c5cccnc5)cc4c23)cc1)N1CCCC1` (centres unmarked) [Example 63, 4-[3-fluoro-6-(pyridin-3-yl)-9H-pyrrolo[2,3-b:5,4-c′]dipyridin-4-yl]-N-[2-(pyrrolidin-1-yl)propyl]benzamide], for which the EC50 in assay [1] and in assay [6] was 100 to 1000 nM each time. Also, the IC50 was 100 to 1000 nM in assay [2]; < 100 nM in assay [3]; 100 to 1000 nM in assay [4]; 1000 to 5000 nM in assay [5]; < 100 nM in assay [7]; 100 to 1000 nM in assay [8].
